Tests used:
[1] = test system: p21 induction in HCT 116 cells; experiment: p21 induction in cells (In-Cell Western, p21/GAPDH ratio); type: cell-based; details: Homo sapiens, HCT-116, 24 h, 24 h compound incubation, read-out: P21_EC50
Procedure: Example 3: Method for Determining Effect on p21 Induction in Cells
The colon carcinoma cell line HCT 116 was obtained from ATCC and cultured in growth medium consisting of Mccoy's 5A Medium (Gibco 16600108) supplemented with 10% FBS (Transgene FS201-02) and 100 units/mL penicillin-streptomycin (Gibco 15140122) and maintained at 37° C. under 5% CO2. On the day of seeding, 2,000 cells in 30 μL of culture media were plated per well to Poly-D-Lysine 384 Well Black Clear Plates (Biocoat 356663) and incubated overnight at 37° C. under 5% CO2. The following day, compounds were serially diluted in DMSO for a total of 11 test concentrations. The typical starting concentration of compounds was 10 μM with 2-fold dilutions. Next, 150 nL of diluted compound was added in duplicate to the assay plate, using an Echo 655 (Labcyte). The plate was centrifuged at 500 RPM for 1 min and then incubated at 37° C. under 5% CO2 for 24 h. After 24h, medium was removed, and cells were fixed by adding 40 μL of 4% paraformaldehyde solution to each well and incubated for 20 min at room temperature. The plate was then washed 4 times with 100 μL per well of wash buffer (PBS with 0.1% Tween-20) using a microplate washer. Next, 30 μL of ice-cold methanol was added to each well and the plate was incubated at −20° C. for 10 min. The plate was washed 4 times with 100 μL per well of wash buffer by a microplate washer, then 30 μL per well of blocking buffer (Intercept PBS blocking buffer (LI-COR 927-70001) with 0.05% Tween-20) was added and the plate was incubated at room temperature with shaking for 2h. Next, to each test well, 20 μL of primary antibody solution (p21 Waf1/CIP (12D1) RabbitmAb (Cell Signaling Technologies 2947) diluted 1:1000 and GAPDH (D4C6R) Mouse mAb (Cell Signaling Technologies 97166) diluted 1:2000 in blocking buffer) was added and the plate was placed at 4° C., overnight. The following day, the plate was washed 5 times with 100 μL per well of wash buffer using a microplate washer for 5 min. 20 μL per well of secondary antibody (IRDye 680CW Goat anti-Mouse IgG (H+L) (LI-COR 926-68070) diluted 1: 2000 in Blocking Buffer and IRDye 800CW Goat anti-Rabbit IgG (H+L) (LI-COR 926-32211) diluted 1: 2000 in Blocking Buffer) was then added and the plate was stored for 2h in the dark at room temperature with shaking. The plate was then washed 4 times with 100 μL per well of wash buffer again using a microplate washer. Finally, the p21 signal and the GAPDH signal were quantified using a LI-COR Odyssey CLx Imager machine reading at 800 nm and 700 nm, respectively. Each plate contained DMSO control (low control) and an internal reference WRN inhibitor (high control) respectively. For quantitation, the 800 nm/700 nm ratio was calculated for each well to give fold p21 induction and then percent activation for each compound well was calculated as follows (100×(ratio cpd well−ratio low control)/(ratio high control−ratio low control)). EC50 values for each compound were generated after non-linear regression curve fitting using commercially available software.

[2] = target: T1, human Werner helicase (WRN, Uniprot Q14191, amino acids 517-1235 with L1074F point mutation; WRN-BV08) (Homo sapiens, UniProt Q14191, L1074F); experiment: WRN (BV08) ADP-Glo assay; type: biochemical; details: WRN-BV08 (aa 517-1235, L1074F); read-out: ADP-Glo_hWRN_IC50
T1 construct: Uniprot Q14191, amino acids 517-1235 with L1074F point mutation; 8xHis (C, cleaved yes); TEV cleavage site (ENLYFQG) (C, cleaved yes); made in house; host or cells: Sf9 insect cells (baculovirus, pFastBac)
T1 sequence (Q14191 with tags, fused parts or gaps L1074F): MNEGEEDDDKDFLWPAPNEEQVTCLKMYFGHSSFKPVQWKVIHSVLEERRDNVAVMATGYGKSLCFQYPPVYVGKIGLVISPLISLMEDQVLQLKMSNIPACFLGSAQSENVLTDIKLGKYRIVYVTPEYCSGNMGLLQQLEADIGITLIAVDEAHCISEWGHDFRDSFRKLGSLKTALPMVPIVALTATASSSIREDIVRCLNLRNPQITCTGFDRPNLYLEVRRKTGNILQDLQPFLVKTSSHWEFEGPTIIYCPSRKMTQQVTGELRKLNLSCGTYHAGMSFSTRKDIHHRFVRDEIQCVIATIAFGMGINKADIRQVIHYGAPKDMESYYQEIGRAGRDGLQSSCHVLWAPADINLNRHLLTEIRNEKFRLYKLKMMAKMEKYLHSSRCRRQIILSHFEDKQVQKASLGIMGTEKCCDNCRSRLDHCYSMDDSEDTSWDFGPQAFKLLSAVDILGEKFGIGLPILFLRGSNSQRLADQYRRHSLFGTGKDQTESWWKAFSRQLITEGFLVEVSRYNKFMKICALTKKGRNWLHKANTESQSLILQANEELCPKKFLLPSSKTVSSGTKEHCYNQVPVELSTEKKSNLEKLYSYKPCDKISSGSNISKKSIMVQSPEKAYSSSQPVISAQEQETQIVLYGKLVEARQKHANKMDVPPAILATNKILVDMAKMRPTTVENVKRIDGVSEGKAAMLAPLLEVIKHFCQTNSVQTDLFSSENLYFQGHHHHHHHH
Description: Example 2: WRN (BV08) ADP-Glo Assay Protocol
Bovine skin gelatin (BSG), dimethyl sulfoxide (DMSO), Pluronic F-127 and tris(2-carboxyethyl)phosphine hydrochloride solution (TCEP) were purchased from Sigma-Aldrich (St. Louis, MO) at the highest level of purity possible. Bicine buffer solution was purchased from Alfa Aesar (Tewksbury, MA) and compound NSC-617145 was purchased from Tocris (Minneapolis, MN). DNA duplex was synthesized at BGI (Shenzhen, China) and was composed of strand 1 with the sequence 5′-[…]-3′ (SEQ ID NO.: 1) and strand 2 with the sequence 5′-[…]-3′ (SEQ ID NO.: 2). DNA strands were annealed by heating to 95° C. for 5 minutes followed by slow cooling to room temperature. Compounds in 100% DMSO ([…]) were spotted into a 384-well white polystyrene Optiplate-384 (Perkin Elmer; Waltham, MA) assay plate using a LabCyte Echo 550 (Agilent; Santa Clara, CA). DMSO ([…]) was added to columns 12, rows A-H and column 24, rows I-P for the maximum signal control. Compound NSC-617145 ([…]) was added to columns 12, rows I-P and 24, rows A-H for the minimum signal control (100% inhibition). Compounds/DMSO were preincubated for 15 minutes at 25° C. with […] 2×WRN (BV08), prepared as described below, in assay buffer containing 20 mM Bicine (pH=7.5), 1 mM MgCl2, 10 mM KCl, 0.1% Pluronic F-127, 0.005% BSG, 1 mM TCEP. The reaction was initiated by the addition of […] 2× substrate mixture in assay buffer and incubated for 60 minutes at 25° C. The final concentrations of the assay components were 0.15 nM WRN, […], and 0.1 nM DNA duplex. The final DMSO concentration was 1% and the reference compound concentration (NSC-617145) used for the minimal signal control was […]. The reaction was stopped by the addition of the ADP-Glo Kit components (Promega; Madison, WI) as directed and the relative luminescence units (RLU) were read on an Envision 2104 (Perkin Elmer; Waltham, MA).
% Inhibition Calculation:
Where RLU=relative luminescence units, sample=signal in sample well, and MIN and MAX are the respective minimum and maximum signal controls.
Four-Parameter IC50 Fit Equation:
Where top and bottom are normally allowed to float but may be fixed at 100 or 0 respectively in a 3-parameter fit. Y is the % inhibition and X is the compound concentration.
Molecular Biology and virus production. The DNA encoding human Werner helicase (Uniprot Q14191, amino acids 517-1235 with L1074F point mutation) was generated with codon-optimization for […] expression and subcloned into the pFastBac vector with a TEV cleavable 8×His tag (SEQ ID NO: 5) (WRN—BV08). The baculovirus from the expression plasmid WRN—BV08 was generated from transfection and amplification following the manufacturer's instructions.
Sf9 cells grown in SF900II media were infected with 1:200 WRN—BV08 P2 virus and incubated for protein expression for 72 h at 27° C. The WRN protein was purified using the following protocol. The cell pellets were thawed and resuspended in buffer A (50 mM Tris, pH 7.5, 500 mM NaCl, 1 mM TCEP, 10% Glycerol) supplemented with 0.5% CHAPS, 1 mM PMSF, 1 μg/ml Leupeptin, 1 μg/ml Pepstatin, and the Pierce Universal Nuclease and cocktail tablet. Cleared lysates were loaded onto a Ni Sepharose™ excel column and washed with buffer A and bound protein was eluted with buffer A supplemented with 300 mM imidazole. The eluted protein was dialyzed against buffer A and digested by His-tagged TEV (1:5 ratio) overnight at 4° C. ZnCl2 was added into the sample at final 15 μM before loading onto a second Ni Sepharose™ excel column. Untagged WRN protein was eluted from the column with buffer A supplemented with 20 mM imidazole, dialyzed overnight into buffer B (50 mM Tris, pH 7.5, 1 mM TCEP, 10% Glycerol) supplemented with 150 mM NaCl and loaded onto a Heparin column. Proteins were eluted with a step gradient of buffer B supplemented with 150 mM, 200 mM, 300 mM and 500 mM NaCl. […]

SMILES | EC50 [1] [nM] | IC50 [2] [nM]
CCc1c(N2CCN(C(=O)c3ncnc(C)c3O)CC2)c(=O)n2nc(-c3ccncc3)nc2n1CC(=O)NC12CC(C3CCC3)(C1)C2 [I-219, N-(3-cyclobutylbicyclo[1.1.1]pentan-1-yl)-2-(5-ethyl-6-(4-(5-hydroxy-6-methylpyrimidine-4-carbonyl)piperazin-1-yl)-7-oxo-2-(pyridin-4-yl)-[1,2,4]triazolo[1,5-a]pyrimidin-4(7H)-yl)acetamide] | 500 to 2000 | 5 to 50
CCc1c(N2CCN(C(=O)c3ncnc(C)c3O)CC2)c(=O)n2nc(-c3ccnc(OC)c3)nc2n1CC(=O)NC1CC(C(F)(F)F)C1 (stereo not shown) [I-27, 2-(5-ethyl-6-(4-(5-hydroxy-6-methylpyrimidine-4-carbonyl)piperazin-1-yl)-2-(2-methoxypyridin-4-yl)-7-oxo-[1,2,4]triazolo[1,5-a]pyrimidin-4(7H)-yl)-N-(3-(trifluoromethyl)cyclobutyl)acetamide] | > 5000 | 100 to 500
CCc1c(N2CCN(C(=O)c3cccc4ncoc34)CC2)c(=O)n2nc(-c3ccnc(OC)c3)nc2n1CC(=O)NC12CC(C(C)C)(C1)C2 [I-213, 2-(6-(4-(benzo[d]oxazole-7-carbonyl)piperazin-1-yl)-5-ethyl-2-(2-methoxypyridin-4-yl)-7-oxo-[1,2,4]triazolo[1,5-a]pyrimidin-4(7H)-yl)-N-(3-isopropylbicyclo[1.1.1]pentan-1-yl)acetamide] | 500 to 2000 | 5 to 50
CCc1c([C@@]23CCN(C(=O)c4ncnc(C)c4O)C[C@@H]2C3)c(=O)c2nn(-c3ccnc(OC)c3)nc2n1CC(=O)NC12CC(C(C)C)(C1)C2 (relative stereo) [I-63, rel-2-{5-ethyl-6-[(1R,6S)-3-(5-hydroxy-6-methylpyrimidine-4-carbonyl)-3-azabicyclo[4.1.0]heptan-6-yl]-2-(2-methoxypyridin-4-yl)-7-oxo-2H,4H,7H-[1,2,3]triazolo[4,5-b]pyridin-4-yl}-N-[3-(propan-2-yl)bicyclo[1.1.1]pentan-1-yl]acetamide] | 500 to 2000 | 5 to 50
CCc1c(N2CCN(C(=O)c3ncnc(C)c3O)[C@H]3CC[C@@H]32)c(=O)n2nc(-c3ccnc(OC)c3)nc2n1CC(=O)NC12CC(C3CC3)(C1)C2 [I-208, N-(3-cyclopropylbicyclo[1.1.1]pentan-1-yl)-2-(5-ethyl-6-((1S,6S)-5-(5-hydroxy-6-methylpyrimidine-4-carbonyl)-2,5-diazabicyclo[4.2.0]octan-2-yl)-2-(2-methoxypyridin-4-yl)-7-oxo-[1,2,4]triazolo[1,5-a]pyrimidin-4(7H)-yl)acetamide] | ≤ 500 | 5 to 50
CCc1c(N2CCN(C(=O)c3ncnc(C)c3O)[C@H]3CC[C@@H]32)c(=O)c2c(nnn2C2CC2)n1CC(=O)NC12CC(C3CC3)(C1)C2 [I-245, 2-(1-cyclopropyl-5-ethyl-6-((1S,6S)-5-(5-hydroxy-6-methylpyrimidine-4-carbonyl)-2,5-diazabicyclo[4.2.0]octan-2-yl)-7-oxo-1,7-dihydro-4H-[1,2,3]triazolo[4,5-b]pyridin-4-yl)-N-(3-cyclopropylbicyclo[1.1.1]pentan-1-yl)acetamide] | 2000 to 5000 | 100 to 500
CCc1c(N2CCN(C(=O)c3c(OC)ncc(C)c3O)CC2)c(=O)n2nc(C3=CCOCC3)nc2n1CC(=O)NC12CC(C(F)(F)F)(C1)C2 [I-236, 2-(2-(3,6-dihydro-2H-pyran-4-yl)-5-ethyl-6-(4-(4-hydroxy-2-methoxy-5-methylnicotinoyl)piperazin-1-yl)-7-oxo-[1,2,4]triazolo[1,5-a]pyrimidin-4(7H)-yl)-N-(3-(trifluoromethyl)bicyclo[1.1.1]pentan-1-yl)acetamide] | 2000 to 5000 | 5 to 50
CCc1c(N2CCN(C(=O)c3c(OC)ncc(C4CC4)c3O)CC2)c(=O)c2nn(-c3ccnc(OC)c3)nc2n1CC(=O)NC12CC(C(C)C)(C1)C2 [I-83, 2-{6-[4-(5-cyclopropyl-4-hydroxy-2-methoxypyridine-3-carbonyl)piperazin-1-yl]-5-ethyl-2-(2-methoxypyridin-4-yl)-7-oxo-2H,4H,7H-[1,2,3]triazolo[4,5-b]pyridin-4-yl}-N-[3-(propan-2-yl)bicyclo[1.1.1]pentan-1-yl]acetamide] | ≤ 500 | 
CCc1c(N2CCN(C(=O)c3ncnc(C)c3O)[C@H]3CCC[C@@H]32)c(=O)c2nn(-c3ccnc(OC)c3)nc2n1CC(=O)NC12CC(C3CC3)(C1)C2 [I-54, 2-{6-[(4aS,7aS)-4-(5-hydroxy-6-methylpyrimidine-4-carbonyl)-octahydro-1H-cyclopenta[b]pyrazin-1-yl]-5-ethyl-2-(2-methoxypyridin-4-yl)-7-oxo-2H,4H,7H-[1,2,3]triazolo[4,5-b]pyridin-4-yl}-N-{3-cyclopropylbicyclo[1.1.1]pentan-1-yl}acetamide] |  | 5 to 50

From patent US20250206738A1, “WRN INHIBITORS” (Nimbus Wadjet, Inc., priority 2023, published 2025)
